Results published in article PMC7544826 (Communications Biology, 2020).

How the values were obtained:
Notum [1] = target: T1, Notum (Homo sapiens, UniProt Q6P988, C330S); test: Thermal shift assay (SYPRO Orange) of Notum; conditions: compound 500 µM; for Thermoflour melting curve fluorescence of Notum: Fig 2c
T1 sequence (Q6P988 81-451 C330S): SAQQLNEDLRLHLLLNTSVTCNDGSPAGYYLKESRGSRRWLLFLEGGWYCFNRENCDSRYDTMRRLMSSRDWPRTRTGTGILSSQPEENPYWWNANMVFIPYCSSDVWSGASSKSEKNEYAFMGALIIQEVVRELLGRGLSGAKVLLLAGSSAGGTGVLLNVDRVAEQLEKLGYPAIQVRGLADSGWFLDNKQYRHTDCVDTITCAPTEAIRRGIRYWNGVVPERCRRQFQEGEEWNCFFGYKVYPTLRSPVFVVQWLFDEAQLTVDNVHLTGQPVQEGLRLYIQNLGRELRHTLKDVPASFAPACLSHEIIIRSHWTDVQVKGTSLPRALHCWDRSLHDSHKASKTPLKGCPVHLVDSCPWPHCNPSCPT
Protocol: Reference wells, i.e. solutions without compounds were used to compare the melting temperature (Tm). The experiments were performed in triplicate.

Notum [2] = target: T1, Notum; test: Notum activity assay with OPTS as substrate; type: biochemical; design: The human Notum enzyme core comprising amino acids S81–T451 with a C330S mutation; made in house; dialyzed conditioned medium used without purification; conditions: result in words
Protocol: OPTS is a common lipase substrate with an octanoyl lipid linked to a fluorescent moiety. It is not a natural Notum substrate; however, it can be used to quantify the enzymatic activity of purified Notum protein[23],[25],[28]. […] The fluorescent lipase substrate OPTS was dissolved in water at a concentration of 20 µM. […] The inhibition curves were fitted with a one-site model with GraphPad Prism 8 software.

Notum [3] = target: T1, Notum; test: SPR equilibrium binding to biotinylated Notum on streptavidin chip; design: The human Notum enzyme core comprising amino acids S81–T451 with a C330S mutation; made in house; dialyzed conditioned medium used without purification; conditions: result in words
Protocol: The human Notum core sequence was cloned in a pHL-Avi3 vector[49] and co-transfected with the pDisplay_BirA-ER plasmid[50] into HEK293T cells with the media supplemented with 20 µM biotin. This procedure allows in vivo biotinylation to occur, and the dialyzed conditioned medium was directly used for SA sensor chip immobilization without protein purification. […] Approximately 2500 resonance units (RU) of the biotinylated Notum was coupled onto the chip. […] The response was plotted versus the concentration of the analytes and fitted by nonlinear regression to a one-site saturation binding model (GraphPad Prism 8).

Cn1c(=O)[nH]c2ncn(C)c2c1=O [paraxanthine, 1,7-dimethylxanthine]
Thermoflour melting curve fluorescence of Notum (Notum [1]; Temperature 24.5): 1987.07
Thermoflour melting curve fluorescence of Notum (Notum [1]; Temperature 25.5): 1782.57
Thermoflour melting curve fluorescence of Notum (Notum [1]; Temperature 26.5): 1579.35
Thermoflour melting curve fluorescence of Notum (Notum [1]; Temperature 27.5): 1384.26
Thermoflour melting curve fluorescence of Notum (Notum [1]; Temperature 28.5): 1239.77
Thermoflour melting curve fluorescence of Notum (Notum [1]; Temperature 29.5): 1129.04
Thermoflour melting curve fluorescence of Notum (Notum [1]; Temperature 30.5): 1031.12
Thermoflour melting curve fluorescence of Notum (Notum [1]; Temperature 31.5): 918.053
Thermoflour melting curve fluorescence of Notum (Notum [1]; Temperature 32.5): 770.537
Thermoflour melting curve fluorescence of Notum (Notum [1]; Temperature 33.5): 609.721
Thermoflour melting curve fluorescence of Notum (Notum [1]; Temperature 34.5): 426.953
Thermoflour melting curve fluorescence of Notum (Notum [1]; Temperature 35.5): 213.386
Thermoflour melting curve fluorescence of Notum (Notum [1]; Temperature 36.5): -34.2239
Thermoflour melting curve fluorescence of Notum (Notum [1]; Temperature 37.5): -296.182
Thermoflour melting curve fluorescence of Notum (Notum [1]; Temperature 38.5): -499.812
Thermoflour melting curve fluorescence of Notum (Notum [1]; Temperature 39.5): -637.629
Thermoflour melting curve fluorescence of Notum (Notum [1]; Temperature 40.5): -751.582
Thermoflour melting curve fluorescence of Notum (Notum [1]; Temperature 41.5): -837.247
Thermoflour melting curve fluorescence of Notum (Notum [1]; Temperature 42.5): -891.039
Thermoflour melting curve fluorescence of Notum (Notum [1]; Temperature 43.5): -901.613
Thermoflour melting curve fluorescence of Notum (Notum [1]; Temperature 44.5): -863.856
Thermoflour melting curve fluorescence of Notum (Notum [1]; Temperature 45.5): -795.543
Thermoflour melting curve fluorescence of Notum (Notum [1]; Temperature 46.5): -693.454
Thermoflour melting curve fluorescence of Notum (Notum [1]; Temperature 47.5): -545.549
Thermoflour melting curve fluorescence of Notum (Notum [1]; Temperature 48.5): -352.113
Thermoflour melting curve fluorescence of Notum (Notum [1]; Temperature 49.5): -114.575
Thermoflour melting curve fluorescence of Notum (Notum [1]; Temperature 50.5): 165.368
Thermoflour melting curve fluorescence of Notum (Notum [1]; Temperature 51.5): 475.15
Thermoflour melting curve fluorescence of Notum (Notum [1]; Temperature 52.5): 801.618
Thermoflour melting curve fluorescence of Notum (Notum [1]; Temperature 53.5): 1178.09
Thermoflour melting curve fluorescence of Notum (Notum [1]; Temperature 54.5): 1624.42
Thermoflour melting curve fluorescence of Notum (Notum [1]; Temperature 55.5): 2146.78
Thermoflour melting curve fluorescence of Notum (Notum [1]; Temperature 56.5): 2764.33
Thermoflour melting curve fluorescence of Notum (Notum [1]; Temperature 57.5): 3495.42
Thermoflour melting curve fluorescence of Notum (Notum [1]; Temperature 58.5): 4462.48
Thermoflour melting curve fluorescence of Notum (Notum [1]; Temperature 59.5): 5756.59
Thermoflour melting curve fluorescence of Notum (Notum [1]; Temperature 60.5): 7495.13
Thermoflour melting curve fluorescence of Notum (Notum [1]; Temperature 61.5): 9729.04
Thermoflour melting curve fluorescence of Notum (Notum [1]; Temperature 62.5): 12262.8
Thermoflour melting curve fluorescence of Notum (Notum [1]; Temperature 63.5): 14775.9
Thermoflour melting curve fluorescence of Notum (Notum [1]; Temperature 64.5): 17022.5
Thermoflour melting curve fluorescence of Notum (Notum [1]; Temperature 65.5): 18955.6
Thermoflour melting curve fluorescence of Notum (Notum [1]; Temperature 66.5): 20556.8
Thermoflour melting curve fluorescence of Notum (Notum [1]; Temperature 67.5): 21849.9
Thermoflour melting curve fluorescence of Notum (Notum [1]; Temperature 68.5): 22932.3
Thermoflour melting curve fluorescence of Notum (Notum [1]; Temperature 69.5): 23847.9
Thermoflour melting curve fluorescence of Notum (Notum [1]; Temperature 70.5): 24631
Thermoflour melting curve fluorescence of Notum (Notum [1]; Temperature 71.5): 25359.6
Thermoflour melting curve fluorescence of Notum (Notum [1]; Temperature 72.5): 25975.5
Thermoflour melting curve fluorescence of Notum (Notum [1]; Temperature 73.5): 26515.7
Thermoflour melting curve fluorescence of Notum (Notum [1]; Temperature 74.5): 27075.8
Thermoflour melting curve fluorescence of Notum (Notum [1]; Temperature 75.5): 27622.8
Thermoflour melting curve fluorescence of Notum (Notum [1]; Temperature 76.5): 28157.3
Thermoflour melting curve fluorescence of Notum (Notum [1]; Temperature 77.5): 28616.3
Thermoflour melting curve fluorescence of Notum (Notum [1]; Temperature 78.5): 29028.5
Thermoflour melting curve fluorescence of Notum (Notum [1]; Temperature 79.5): 29470.8
Thermoflour melting curve fluorescence of Notum (Notum [1]; Temperature 80.5): 29930.8
Thermoflour melting curve fluorescence of Notum (Notum [1]; Temperature 81.5): 30385.9
Thermoflour melting curve fluorescence of Notum (Notum [1]; Temperature 82.5): 30819.6
Thermoflour melting curve fluorescence of Notum (Notum [1]; Temperature 83.5): 31270.2
Thermoflour melting curve fluorescence of Notum (Notum [1]; Temperature 84.5): 31691.8
Thermoflour melting curve fluorescence of Notum (Notum [1]; Temperature 85.5): 32102.2
Thermoflour melting curve fluorescence of Notum (Notum [1]; Temperature 86.5): 32523.2
Thermoflour melting curve fluorescence of Notum (Notum [1]; Temperature 87.5): 32949.1
Thermoflour melting curve fluorescence of Notum (Notum [1]; Temperature 88.5): 33332.7
Thermoflour melting curve fluorescence of Notum (Notum [1]; Temperature 89.5): 33682.6
Thermoflour melting curve fluorescence of Notum (Notum [1]; Temperature 90.5): 34084.7
Thermoflour melting curve fluorescence of Notum (Notum [1]; Temperature 91.5): 34496.3
Thermoflour melting curve fluorescence of Notum (Notum [1]; Temperature 92.5): 34921.9
Thermoflour melting curve fluorescence of Notum (Notum [1]; Temperature 93.5): 35339.5
Thermoflour melting curve fluorescence of Notum (Notum [1]; Temperature 94.5): 35764.6
Thermoflour melting curve fluorescence of Notum (Notum [1]; Temperature 95.5): 36159.7
Thermoflour melting curve fluorescence of Notum (Notum [1]; Temperature 96.5): 36500.9
Thermoflour melting curve fluorescence of Notum (Notum [1]; Temperature 97.5): 36857
Effect on Tm of Notum (Notum [1]): little effect on the Tm
Melting temperature (Tm) of Notum (Notum [1]; Notum without compounds Tm 63.6 °C): 63.5 °C
Notum inhibitory effect in OPTS enzyme assay (Notum [2]): could not detect obvious Notum inhibitory effects
Binding to Notum (SPR response) (Notum [3]): did not observe significant responses
Binding to Notum (SPR response) (Notum [3]; listed as Paraxanthine): do not bind Notum
